These results are taken from ChEMBL document CHEMBL4513161, “CO-ADD screening of MMV (CH) - Pandemic Response Box” (2021).

Assay [1] relates to Pseudomonas aeruginosa. Nature of the assay: microbe, parasite or virus in culture. To be noted: ATCC 27853, 18 h, ASSAY_TEST Inhibition of Bacterial Growth, detection method Absorption (OD600), MEDIA CAMHB, plate type 384well, NBS, CORNING #3640.
The test system of another assay is Staphylococcus aureus. The assay is described as follows: microbe, parasite or virus in culture. To be noted: ATCC 43300, 18 h, ASSAY_TEST Inhibition of Bacterial Growth, detection method Absorption (OD600), MEDIA CAMHB, plate type 384well, NBS, CORNING #3640.
A further assay has as its system Klebsiella pneumoniae. The assay is described as follows: microbe, parasite or virus in culture. Conditions: ATCC 700603, 18 h, ASSAY_TEST Inhibition of Bacterial Growth, detection method Absorption (OD600), MEDIA CAMHB, plate type 384well, NBS, CORNING #3640.
In the next assay the test system is Acinetobacter baumannii. The assay is described as follows: microbe, parasite or virus in culture. To be noted: ATCC 19606, 18 h, ASSAY_TEST Inhibition of Bacterial Growth, detection method Absorption (OD600), MEDIA CAMHB, plate type 384well, NBS, CORNING #3640.
Another assay deals with Escherichia coli. Nature of the assay: microbe, parasite or virus in culture. To be noted: ATCC 25922, 18 h, ASSAY_TEST Inhibition of Bacterial Growth, detection method Absorption (OD600), MEDIA CAMHB, plate type 384well, NBS, CORNING #3640.
A further assay has as its system Candida albicans. The assay is described as follows: microbe, parasite or virus in culture. Conditions: ATCC 90028, ASSAY_TEST Inhibition of Fungal Growth, detection method Absorption (OD530), plate type 384well, NBS, CORNING #3640.
The test system of another assay is HEK293. The assay is described as follows: cells. To be noted: Homo sapiens, ATCC CRL1573, HEK293; ASSAY_TEST Inhibition of Cell Viability; detection method Resazurin; Fluorescence (ex560/em590); MEDIA DMEM with 10% FBS; plate type 384well; TC; CORNING #3712; time 18 hr; read-out: CC50. The assay is classed as functional, Homo sapiens, ATCC CRL1573. For orientation: Alamar Blue is a resazurin reagent that responds to reducing activity.

Assay [2] relates to Pseudomonas aeruginosa. Nature of the assay: Antibacterial activity against Pseudomonas aeruginosa PAO397 [PAO1 d(mexAB-oprM) d(mexCD-oprJ) d(mexEF-oprN) d(mexJKL) d(mexXY) d(opmH)] (CO-ADD:GN_211); MIC in CAMBH media using NBS plates, by OD(600). The assay is classed as functional. To be noted: ASSAY_TEST Inhibition of Bacterial Growth, detection method Absorption (OD600), MEDIA CAMHB, plate type 384well, CORNING #3640, time 18 hr.

Converted amounts (≈) assume the structure as drawn. Structures can show the parent of a compound that is named as a salt. Some results are limits rather than exact numbers.

Turning to `C[C@@]1(O)[C@H](O)[C@@H](CO)O[C@H]1n1ccc2c(N)ncnc21` [BETA-2'-C-METHYL-7-DEAZA-ADENOSINE], the MIC with Pseudomonas aeruginosa [1], in the assay on Staphylococcus aureus, against Klebsiella pneumoniae, against Acinetobacter baumannii, with Escherichia coli and in the assay on Candida albicans was greater than 20 µM throughout. The MIC in the assay on Pseudomonas aeruginosa [2] and against Cryptococcus neoformans was greater than 20 µM in each case. Moreover, the CC50 in the assay with HEK293 was greater than 20 µM.
In the case of `O=C(O)CCNC(=O)c1ccccc1` [BETAMIPRON], the MIC in the assay on Pseudomonas aeruginosa [1], against Staphylococcus aureus, against Klebsiella pneumoniae, against Acinetobacter baumannii, in the assay with Escherichia coli and against Candida albicans was greater than 20 µM in each case. The MIC against Pseudomonas aeruginosa [2] and with Cryptococcus neoformans was greater than 20 µM each time. Also, the half-maximal cytotoxic concentration (CC50) with HEK293 was greater than 20 µM.
As for `C=C(C)[C@@H]1CC[C@]2(C(=O)O)CC[C@]3(C)[C@H](CC[C@@H]4[C@@]5(C)CC[C@H](O)C(C)(C)[C@@H]5CC[C@]43C)[C@@H]12` [BETULINIC ACID], the MIC in the assay on Pseudomonas aeruginosa [1], in the assay on Staphylococcus aureus, in the assay on Klebsiella pneumoniae, in the assay on Acinetobacter baumannii, against Escherichia coli and in the assay on Candida albicans was greater than 20 µM in each case. For the same compound, the MIC against Pseudomonas aeruginosa [2] and in the assay on Cryptococcus neoformans was greater than 20 µM throughout. Moreover, the cytotoxic concentration (CC50) in the assay on HEK293 is greater than 20 µM.
As to `CC[C@H](NC(=O)[C@H](C)NC)C(=O)N1C[C@@H](O)C[C@H]1Cc1c(-c2[nH]c3cc(F)ccc3c2C[C@@H]2C[C@H](O)CN2C(=O)[C@H](CC)NC(=O)[C@H](C)NC)[nH]c2cc(F)ccc12` [BIRINAPANT], the MIC against Pseudomonas aeruginosa [1], against Staphylococcus aureus, in the assay on Klebsiella pneumoniae, in the assay on Acinetobacter baumannii, in the assay with Escherichia coli and against Candida albicans was greater than 20 µM throughout. Further, the MIC with Pseudomonas aeruginosa [2] and in the assay with Cryptococcus neoformans was greater than 20 µM throughout. For the same compound, in the assay with HEK293, the cytotoxic concentration (CC50) was greater than 20 µM.
As to `CC(C)(C)NC(=O)N[C@H](C(=O)N1C[C@H]2[C@@H]([C@H]1C(=O)NC(CC1CCC1)C(=O)C(N)=O)C2(C)C)C(C)(C)C` (some centres undefined) [BOCEPREVIR], the MIC in the assay with Pseudomonas aeruginosa [1], in the assay with Staphylococcus aureus, against Klebsiella pneumoniae, with Acinetobacter baumannii, against Escherichia coli and against Candida albicans was greater than 20 µM throughout. Moreover, the MIC in the assay on Pseudomonas aeruginosa [2] and in the assay with Cryptococcus neoformans was greater than 20 µM in each case. In the assay on HEK293, the CC50 is greater than 20 µM.
In the case of `Nc1nc(=O)c(Br)c(-c2ccccc2)[nH]1` [BROPIRIMINE], the MIC with Pseudomonas aeruginosa [1], against Staphylococcus aureus, in the assay with Klebsiella pneumoniae, in the assay on Acinetobacter baumannii, against Escherichia coli and against Candida albicans was greater than 20 µM in each case. In addition, the MIC in the assay with Pseudomonas aeruginosa [2] and in the assay on Cryptococcus neoformans was greater than 20 µM throughout. Further, the half-maximal cytotoxic concentration (CC50) in the assay with HEK293 was greater than 20 µM.
For `CN(Cc1ccc(C(C)(C)C)cc1)Cc1cccc2ccccc12` [BUTENAFINE HYDROCHLORIDE], the MIC in the assay on Pseudomonas aeruginosa [1], with Staphylococcus aureus, in the assay on Klebsiella pneumoniae, against Acinetobacter baumannii, against Escherichia coli and with Candida albicans was greater than 20 µM each time. The figures for the MIC with Pseudomonas aeruginosa [2] and in the assay on Cryptococcus neoformans were greater than 20 µM and 5 µM, respectively. Moreover, the CC50 in the assay with HEK293 was greater than 20 µM.
As to `COC(=O)Nc1nc2ccccc2[nH]1` [CARBENDAZIM], the MIC against Pseudomonas aeruginosa [1], against Staphylococcus aureus, against Klebsiella pneumoniae, against Acinetobacter baumannii, with Escherichia coli and against Candida albicans was greater than 20 µM throughout. Further, the MIC in the assay with Pseudomonas aeruginosa [2] and with Cryptococcus neoformans was greater than 20 µM in each case. Further, the cytotoxic concentration (CC50) in the assay with HEK293 stood at 15.5 µM.
With `CO/N=C(\C(=O)N[C@@H]1C(=O)N2C(C(=O)OCOC(=O)C(C)(C)C)=C(/C=C\c3scnc3C)CS[C@H]12)c1csc(N)n1` [CEFDITOREN PIVOXIL], the MIC against Pseudomonas aeruginosa [1], against Staphylococcus aureus, in the assay with Klebsiella pneumoniae, with Acinetobacter baumannii, against Escherichia coli and against Candida albicans was greater than 20 µM each time. Also, the MIC in the assay on Pseudomonas aeruginosa [2] and with Cryptococcus neoformans was greater than 20 µM in each case. The CC50 in the assay with HEK293 was greater than 20 µM.
As for `Cc1c(N)cccc1Cn1ccc(OCCc2cccs2)cc1=O` [CG-400549], the MIC in the assay with Pseudomonas aeruginosa [1] is greater than 20 µM; in the assay on Staphylococcus aureus, 0.625 µM (≈ 0.213 µg/mL); in the assay with Klebsiella pneumoniae, greater than 20 µM; with Acinetobacter baumannii, greater than 20 µM; against Escherichia coli it was greater than 20 µM; against Candida albicans, greater than 20 µM. Moreover, the MIC in the assay with Pseudomonas aeruginosa [2] and with Cryptococcus neoformans was greater than 20 µM throughout. Also, in the assay on HEK293, the half-maximal cytotoxic concentration (CC50) was greater than 20 µM.
As to `CCN(CC)CCCC(C)Nc1ccnc2cc(Cl)ccc12` (centres undefined) [CHLOROQUINE], the MIC in the assay with Pseudomonas aeruginosa [1], with Staphylococcus aureus, against Klebsiella pneumoniae, with Acinetobacter baumannii, against Escherichia coli and against Candida albicans was greater than 20 µM in each case. Further, the MIC against Pseudomonas aeruginosa [2] and with Cryptococcus neoformans was greater than 20 µM each time. The cytotoxic concentration (CC50) in the assay on HEK293 is greater than 20 µM.
For `Cc1cc(C2CCCCC2)n(O)c(=O)c1` [CICLOPIROX], the MIC in the assay on Pseudomonas aeruginosa [1] was greater than 20 µM; with Staphylococcus aureus, greater than 20 µM; against Klebsiella pneumoniae, greater than 20 µM; in the assay with Acinetobacter baumannii, greater than 20 µM; in the assay on Escherichia coli it was greater than 20 µM; with Candida albicans it was 5 µM (≈ 1.04 µg/mL). Further, the MIC is greater than 20 µM with Pseudomonas aeruginosa [2] and 5 µM (≈ 1.04 µg/mL) in the assay with Cryptococcus neoformans. In addition, in the assay on HEK293, the CC50 turned out to be 3.98 µM.
With `O=C(O)c1cc(-c2ccccc2)nc2ccccc12` [CINCHOPHEN], the MIC in the assay with Pseudomonas aeruginosa [1], in the assay with Staphylococcus aureus, in the assay with Klebsiella pneumoniae, in the assay on Acinetobacter baumannii, in the assay with Escherichia coli and in the assay with Candida albicans was greater than 20 µM throughout. Besides, the MIC in the assay with Pseudomonas aeruginosa [2] and against Cryptococcus neoformans was greater than 20 µM each time. For the same compound, in the assay on HEK293, the CC50 was greater than 20 µM.
Turning to `Clc1ccc(Cn2c(CN3CCCC3)nc3ccccc32)cc1` [CLEMIZOLE], the MIC with Pseudomonas aeruginosa [1], in the assay on Staphylococcus aureus, in the assay on Klebsiella pneumoniae, in the assay with Acinetobacter baumannii, against Escherichia coli and against Candida albicans was greater than 20 µM in each case. For the same compound, the MIC in the assay with Pseudomonas aeruginosa [2] and in the assay with Cryptococcus neoformans was greater than 20 µM throughout. In addition, in the assay with HEK293, the 50% cytotoxic concentration (CC50) was greater than 20 µM.
As for `CCC[C@@H]1C[C@@H](C(=O)N[C@@H]([C@H]2O[C@H](SC)[C@H](O)[C@@H](O)[C@H]2O)[C@H](C)Cl)N(C)C1` [CLINDAMYCIN HYDROCHLORIDE], the MIC with Pseudomonas aeruginosa [1], against Staphylococcus aureus, in the assay with Klebsiella pneumoniae, against Acinetobacter baumannii, in the assay on Escherichia coli and in the assay with Candida albicans was greater than 20 µM throughout. For the same compound, the MIC against Pseudomonas aeruginosa [2] is 20 µM; in the assay on Cryptococcus neoformans, greater than 20 µM. Further, the CC50 in the assay on HEK293 is greater than 20 µM.
Consider `Cc1onc(-c2ccccc2Cl)c1C(=O)N[C@@H]1C(=O)N2[C@@H]1SC(C)(C)[C@@H]2C(=O)O` [CLOXACILLIN], for which the MIC with Pseudomonas aeruginosa [1] is greater than 20 µM; in the assay with Staphylococcus aureus, 1.25 µM (≈ 0.545 µg/mL); in the assay on Klebsiella pneumoniae, greater than 20 µM; against Acinetobacter baumannii, greater than 20 µM; in the assay with Escherichia coli, greater than 20 µM; with Candida albicans, greater than 20 µM. Moreover, the MIC with Pseudomonas aeruginosa [2] and in the assay on Cryptococcus neoformans was greater than 20 µM in each case. Besides, in the assay with HEK293, the CC50 was greater than 20 µM.

One may read the CC50 as the concentration at which the toxic effect on the cells reaches its halfway point.
